One assay concerns Bacillus subtilis. As to the kind of experiment: Antimicrobial activity against gram positive Bacillus subtilis at a dose of 120 ug. Format: functional.
The subject of another assay is Trichophyton benhamiae. As to the kind of experiment: Antimicrobial activity against Trichophyton mentagrophytes fungus at a dose of 120 ug. Format: functional.
The next assay concerns P388. In words: In vitro cytotoxic activity against mouse leukemia (P388 ) cell line. Format: functional, cell-based.
The test system of assay [1] is Candida albicans. In words: Minimum inhibitory concentration against Candida albicans fungus at a dose of 120 ug. Format: functional.
Another assay deals with Amorphotheca resinae. In words: Antimicrobial activity against Cladosporium resinae fungus at a dose of 120 ug. Format: functional.
The next assay has as its system Pseudomonas aeruginosa. In words: Antimicrobial activity against gram negative Pseudomonas aeruginosa at a dose of 120 ug. Format: functional.
The subject of another assay is Escherichia coli. As to the kind of experiment: Antimicrobial activity against gram negative Escherichia coli at a dose of 120 ug. Format: functional.
Assay [2] relates to Candida albicans. In words: Antimicrobial activity against Candida albicans fungus at a dose of 120 microg. Format: functional.
Assay [3] relates to CHO. In words: In vitro cytotoxic activity against DNA-double strand break repair deficient Chinese Hamster Ovary (CHO) cell-line xrs-6. Format: functional, cell-based. To be noted: Cricetulus griseus.
The test system of the next assay is HCT-116. In words: In vitro cytotoxic activity against human colon (HCT116) cell line. Format: functional, cell-based.
Assay [4] concerns BSC-1. In words: In vitro cytotoxic activity against non-malignant african green monkey kidney cell-line (BSC-1); ranges from 4.5-5 mm. Format: functional, Cercopithecidae.
Assay [5] has as its system CHO. As to the kind of experiment: Hypersensitivity Factor(HF) against DNA-double strand break repair deficient Chinese Hamster Ovary (CHO) cell-line xrs-6 versus wild type BR1(IC50 BRI/IC50 xrs-6). Format: functional, Cricetulus griseus.
The subject of the next assay is MCF7. In words: In vitro cytotoxic activity against human breast (MCF-7) cell line. Format: functional, cell-based.
The subject of assay [6] is CHO. As to the kind of experiment: Hypersensitivity Factor (HF2) towards DNA-double strand break repair deficient Chinese Hamster Ovary (CHO) cell-line EM9 versus wild type BR1([…]). Format: functional, Cricetulus griseus.
Assay [7] relates to CHO. As to the kind of experiment: In vitro cytotoxic activity towards DNA-double strand break repair deficient Chinese Hamster Ovary (CHO) cell-line EM9. Format: functional, cell-based. To be noted: Cricetulus griseus.
Assay [8] deals with Candida albicans. In words: Antimicrobial activity against Candida albicans fungus at a dose of 120 ug. Format: functional.
For assay [9], the system named is BSC-1. In words: In vitro cytotoxic activity against non-malignant african green monkey kidney cell-line (BSC-1); ranges from 3.5-4.5 mm. Format: functional, Cercopithecidae.
Assay [10] relates to CHO. In words: In vitro cytotoxic activity against DNA-double strand break repair deficient Chinese Hamster Ovary (CHO) cell-line EM9. Format: functional, cell-based. To be noted: Cricetulus griseus.
Assay [11] deals with Candida albicans. In words: Minimum inhibitory concentration against Candida albicans fungus at a dose of 120 microg. Format: functional.
In assay [12] the test system is CHO. In words: Hypersensitivity Factor(HF) towards DNA-double strand break repair deficient Chinese Hamster Ovary (CHO) cell-line xrs-6 versus wild type BR1(IC50 BRI/IC50 xrs-6). Format: functional, Cricetulus griseus.

Molecules are shown by their SMILES. Values after ≈ are worked out from the molar mass of the structure shown.

The term IC50 denotes the concentration at which inhibition is half-maximal. As usually defined, the MIC is the least concentration at which growth counts as inhibited. Turning to `Cc1c2c(nc3ccccc13)C(=O)c1ccccc1C2=O`, the Excess zone radius came out at 3 mm with Bacillus subtilis; 0 mm in the assay with Trichophyton benhamiae; 0 mm in the assay with Amorphotheca resinae; 0 mm in the assay on Pseudomonas aeruginosa; 0 mm in the assay with Escherichia coli. In the assay on P388, this molecule gave an IC50 of 39000 nM. Also, the MIC with Candida albicans [1] came to 25 µg/mL (≈ 91.5 µM).

On to `O=C1c2cccnc2-c2nccc3c2c1nc1ccccc13` [ASCIDIDEMIN], for which the Excess zone radius in the assay on Candida albicans [2] is 11 mm; with Bacillus subtilis, 14 mm; with Trichophyton benhamiae, 0 mm; in the assay with Amorphotheca resinae, 10 mm; with Pseudomonas aeruginosa, 0 mm; in the assay on BSC-1 [4], 4.5 mm. Also, in the assay with Escherichia coli, the Excess zone radius was found to be 10 mm. Besides, the IC50 with CHO [3] was 30 nM; in the assay on HCT-116, 300 nM; in the assay with P388, 400 nM; in the assay on MCF7, 300 nM; in the assay with CHO [7], 300 nM. The HF in the assay with CHO [5] was 10. In addition, the HF2 in the assay on CHO [6] is recorded as 1.

As to `Cc1c2c(nc3ccccc13)C(=O)c1cccnc1C2=O`, the Excess zone radius in the assay on Candida albicans [8] was found to be 1 mm; with Bacillus subtilis, 10 mm; in the assay on Trichophyton benhamiae, 0 mm; with BSC-1 [9] it was 3.5 mm; in the assay with Amorphotheca resinae, 6 mm; in the assay with Pseudomonas aeruginosa it was 0 mm. Further, in the assay on Escherichia coli, the Excess zone radius was found to be 0 mm. In addition, in the assay on P388, the concentration for half-maximal inhibition (IC50) amounted to 56000 nM.

Take `O=C1c2ccccc2-c2nccc3c2c1nc1ccccc13` [BENZOSAMPANGINE]: the Excess zone radius in the assay with Candida albicans [8] worked out at 12 mm; in the assay with Bacillus subtilis, 8 mm; in the assay on Trichophyton benhamiae, 10 mm; with Amorphotheca resinae it was 0 mm; in the assay on Pseudomonas aeruginosa it was 0 mm; in the assay on Escherichia coli it was 0 mm. In addition, the IC50 was 18000 nM with CHO [3]; 18000 nM in the assay on CHO [10]; > 350000 nM in the assay on HCT-116; 1600 nM with P388; > 350000 nM with MCF7. Moreover, it took 0.39 µg/mL (≈ 1.38 µM) to inhibit growth against Candida albicans [11] (MIC). Moreover, the HF in the assay with CHO [12] turned out to be 1. This molecule also returned an HF2 with CHO [6] of 0.2.

The values above are taken from ChEMBL document CHEMBL1153679, “Structural requirements for biological activity of the marine alkaloid ascididemin” (Bioorg Med Chem Lett, 1995).
